Laboratory results published in BindingDB's records for doi:10.1021/jm0613323 (Burnham Institute For Medical Research, 2007).

Target: Receptor-type tyrosine-protein phosphatase C, CD45/PTPRC (Homo sapiens) (UniProt P08575)
Experiment: Inhibition of CD45 PTP by fluorescence spectrometry

Sequence of Receptor-type tyrosine-protein phosphatase C, CD45/PTPRC (Homo sapiens) (P08575 whole entry, looked up): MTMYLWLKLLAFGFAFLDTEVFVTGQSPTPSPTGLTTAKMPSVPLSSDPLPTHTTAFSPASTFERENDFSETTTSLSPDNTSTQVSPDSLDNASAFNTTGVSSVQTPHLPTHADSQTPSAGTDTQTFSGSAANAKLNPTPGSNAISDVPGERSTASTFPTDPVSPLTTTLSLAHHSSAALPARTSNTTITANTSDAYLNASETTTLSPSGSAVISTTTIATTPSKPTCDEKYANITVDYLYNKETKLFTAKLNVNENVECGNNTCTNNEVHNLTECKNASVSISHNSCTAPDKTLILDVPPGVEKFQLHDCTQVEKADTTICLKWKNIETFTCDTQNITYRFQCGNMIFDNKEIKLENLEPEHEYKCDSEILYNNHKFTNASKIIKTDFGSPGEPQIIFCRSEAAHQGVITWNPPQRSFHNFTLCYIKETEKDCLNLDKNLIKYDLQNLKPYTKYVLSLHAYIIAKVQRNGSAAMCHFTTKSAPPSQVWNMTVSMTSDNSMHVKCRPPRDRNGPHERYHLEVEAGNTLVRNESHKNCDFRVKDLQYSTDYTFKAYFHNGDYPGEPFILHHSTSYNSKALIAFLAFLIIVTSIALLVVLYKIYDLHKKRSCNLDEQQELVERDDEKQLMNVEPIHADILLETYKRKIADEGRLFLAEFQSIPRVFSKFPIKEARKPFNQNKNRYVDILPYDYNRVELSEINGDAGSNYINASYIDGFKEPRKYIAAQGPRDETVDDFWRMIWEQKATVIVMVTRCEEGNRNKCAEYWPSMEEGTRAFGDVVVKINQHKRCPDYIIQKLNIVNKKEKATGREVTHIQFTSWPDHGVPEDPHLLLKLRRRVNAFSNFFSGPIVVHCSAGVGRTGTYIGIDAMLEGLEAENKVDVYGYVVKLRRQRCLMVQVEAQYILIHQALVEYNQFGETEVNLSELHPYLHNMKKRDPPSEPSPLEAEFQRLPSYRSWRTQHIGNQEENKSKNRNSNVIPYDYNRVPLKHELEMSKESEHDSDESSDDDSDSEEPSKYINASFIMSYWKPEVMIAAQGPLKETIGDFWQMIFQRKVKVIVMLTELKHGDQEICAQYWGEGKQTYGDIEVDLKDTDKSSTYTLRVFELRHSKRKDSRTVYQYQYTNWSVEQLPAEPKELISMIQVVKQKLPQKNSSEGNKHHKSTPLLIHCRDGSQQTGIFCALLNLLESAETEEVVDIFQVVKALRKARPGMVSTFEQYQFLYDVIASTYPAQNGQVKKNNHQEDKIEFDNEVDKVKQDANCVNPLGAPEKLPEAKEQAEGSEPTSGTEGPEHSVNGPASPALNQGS

IC50: 1.2 µM
Structure (SMILES): Oc1ccc(-c2ccc(-c3nnn[nH]3)cc2Cl)cc1C12CC3CC(CC(C3)C1)C2 [5-[3'-(1-adamantyl)-2-chloro-4'-hydroxy-4-biphenyl]-1H-tetrazole]
